# Assay results from patent US8168651B2, “Protein kinase modulators” (Cylene Pharmaceuticals, Inc., priority 2008, dated 2012).
# What was measured:
# [1] = system: MV-4-11; assay: Cell proliferation modulatory activity, MV-4-11; type: cell-based; conditions: Homo sapiens, MV4-11; MV-4-11 cells
# [2] = system: HCT-116 human colorectal carcinoma cells; assay: Cell-proliferation assay using Alamar Blue dye; type: cell-based; conditions: Homo sapiens, HCT-116, second HCT-116 column (c8); read-out: HCT-116 (uM) cell proliferation modulatory activity;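 also: cells exposed to compound for about 4 days, then Alamar Blue added and dye fluorescence read after about 4 h, compared with medium-only control wells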
# [3] = system: K-562; assay: Cell proliferation modulatory activity, K-562; type: cell-based; conditions: Homo sapiens, K562; K-562 cells
# [4] = target: recombinant human PIM1 (Homo sapiens (Human), UniProt P11309); assay: PIM-1 kinase activity in cell-free in vitro assay; type: biochemical; conditions: cell-free assay; for inhibition at 0.5 µM: 500 nM compound, read-out: PIM-1: % inh 500 nM
# Chain of recombinant human PIM1 (P11309 whole entry): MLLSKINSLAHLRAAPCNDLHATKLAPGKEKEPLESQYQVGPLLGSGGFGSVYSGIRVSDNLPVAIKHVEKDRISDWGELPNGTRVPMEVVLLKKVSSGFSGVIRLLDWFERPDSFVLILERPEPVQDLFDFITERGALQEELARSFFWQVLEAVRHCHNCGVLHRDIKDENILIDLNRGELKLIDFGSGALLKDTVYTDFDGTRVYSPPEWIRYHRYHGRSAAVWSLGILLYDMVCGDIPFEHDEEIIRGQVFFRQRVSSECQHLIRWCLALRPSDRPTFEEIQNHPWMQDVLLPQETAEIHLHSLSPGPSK
# [5] = target: recombinant human CK2 (Homo sapiens (Human), UniProt P68400); assay: CK2 assay (cell-free, 33P-ATP filter plate); type: biochemical; conditions: 500 nM compound, cell-free assay; read-out: CK2: % inh 500 nM
# Chain of recombinant human CK2 (P68400 whole entry): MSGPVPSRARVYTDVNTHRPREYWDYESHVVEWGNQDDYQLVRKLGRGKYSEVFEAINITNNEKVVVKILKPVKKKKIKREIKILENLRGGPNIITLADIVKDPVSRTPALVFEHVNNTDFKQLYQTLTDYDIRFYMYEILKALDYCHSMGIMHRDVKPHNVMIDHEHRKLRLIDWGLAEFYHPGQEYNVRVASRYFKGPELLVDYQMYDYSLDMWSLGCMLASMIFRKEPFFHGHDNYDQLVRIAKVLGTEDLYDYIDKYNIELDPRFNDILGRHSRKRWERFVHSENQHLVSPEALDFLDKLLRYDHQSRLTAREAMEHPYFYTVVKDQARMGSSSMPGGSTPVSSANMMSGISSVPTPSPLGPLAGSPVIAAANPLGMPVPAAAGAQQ
# Chain of recombinant human CK2 (P67870 whole entry partner): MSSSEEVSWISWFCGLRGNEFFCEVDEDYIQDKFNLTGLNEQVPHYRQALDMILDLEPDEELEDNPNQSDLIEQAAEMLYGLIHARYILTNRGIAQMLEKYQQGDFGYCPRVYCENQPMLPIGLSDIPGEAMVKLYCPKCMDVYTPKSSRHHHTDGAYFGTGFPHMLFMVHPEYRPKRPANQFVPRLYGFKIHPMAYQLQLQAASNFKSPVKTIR
Compound,IC50 [1] [µM],IC50 [2] [µM],IC50 [3] [µM],inhibition at 0.5 µM [4] [%],inhibition at 0.5 µM [5] [%],IC50 [4] [µM]
CN(C)CCNc1nc2cc(C(=O)N(C)C)ccc2c2sccc12,0.999,> 10,> 10,-3.56,11.8,–
CN1CCC(Nc2nc3cc(-c4nnn[nH]4)ccc3c3sccc23)CC1,> 10,> 10,> 10,83.9,1.28,0.161
CN(C)CCNc1nc2cc(-c3nnc[nH]3)ccc2c2sccc12,6.04,> 10,> 10,-2.14,-76.9,–
c1cc2c(NC3CCNCC3)nc3cc(-c4nnn[nH]4)ccc3c2s1,> 10,> 10,> 10,85.7,-21.2,0.078
CN(C)CCNc1nc2cc(C(=O)NC3CCCCC3)ccc2c2sccc12,> 10,> 10,> 10,-3.1,-10.6,–
CN1CCCCC1CNc1nc2cc(-c3nnn[nH]3)ccc2c2sccc12 (centres unmarked),> 10,> 10,> 10,90.9,32.8,0.064
N#Cc1ccc2c(c1)nc(Nc1cccc(Cl)c1)c1cscc12,> 10,> 10,> 10,-32.8,-9.4,–
N#Cc1ccc2c(c1)nc(Nc1ccc(F)cc1)c1cscc12,> 10,> 10,> 10,-6.77,9.21,–
N#Cc1ccc2c(c1)nc(Nc1cccc(F)c1)c1cscc12,> 10,> 10,8.04,-28.6,-20.1,–
N#Cc1ccc2c(c1)nc(Nc1ccc(Cl)cc1)c1cscc12,> 10,> 10,> 10,-35.8,-2.49,–
N#Cc1ccc2c(c1)nc(Nc1ccc(F)c(Cl)c1)c1cscc12,> 10,> 10,> 10,-26.3,-8.36,–
N#Cc1ccc2c(c1)nc(Nc1cccc(C(F)(F)F)c1)c1cscc12,> 10,> 10,> 10,-33.2,-2.65,–
Fc1ccc(Nc2nc3cc(-c4nnn[nH]4)ccc3c3cscc23)cc1Cl,5.71,> 10,> 10,14.2,51.1,–
Clc1ccc(Nc2nc3cc(-c4nnn[nH]4)ccc3c3cscc23)cc1,6.44,> 10,> 10,15.2,39.5,–
Fc1cc(Cl)cc(Nc2nc3cc(-c4nnn[nH]4)ccc3c3cscc23)c1,> 10,> 10,> 10,11.4,57.3,–
Clc1cccc(Nc2nc3cc(-c4nnn[nH]4)ccc3c3cscc23)c1,> 10,> 10,> 10,17.9,63.3,–
Fc1cccc(Nc2nc3cc(-c4nnn[nH]4)ccc3c3cscc23)c1,> 10,> 10,> 10,14,52.6,–
FC(F)(F)c1cccc(Nc2nc3cc(-c4nnn[nH]4)ccc3c3cscc23)c1,> 10,> 10,> 10,-6.51,23.1,–
CCN1CCC[C@@H]1CNc1nc2cc(-c3nnn[nH]3)ccc2c2sccc12,> 10,> 10,> 10,89.9,78.1,0.065
CN(C)CCNc1nc2cc(-c3nnn[nH]3)ccc2c2sc(-c3ccccc3)cc12,> 10,> 10,> 10,-14.8,0.269,–
Clc1cccc(Nc2nc3cc(-c4nnn[nH]4)ccc3c3ccsc23)c1,4.47,> 10,> 10,31.9,56.2,–

# The next lines start with the values.
IC50 [1] [µM],IC50 [2] [µM],IC50 [3] [µM],inhibition at 0.5 µM [4] [%],inhibition at 0.5 µM [5] [%],IC50 [4] [µM],Compound
1.43,2.34,> 10,26.2,76.2,–,Cc1c(-c2ccccc2)nn(C)c1Nc1nc2cc(C(=O)O)ccc2c2cnccc12
> 10,2.34,1.89,13.7,1.39,–,CN(C)CCNc1nc2cc(C(=O)NC3CC3)ccc2c2sccc12
0.402,4.29,0.198,34,15.6,–,CN(C)CCNc1nc2cc(C(N)=O)ccc2c2sccc12
0.658,> 10,> 10,90.9,31.4,0.109,CN1CCCC(Nc2nc3cc(-c4nnn[nH]4)ccc3c3sccc23)C1 (centres unmarked)
> 10,> 10,> 10,32.7,-5.33,–,CC1(C)CC(Nc2nc3cc(-c4nnn[nH]4)ccc3c3sccc23)CC(C)(C)N1
0.174,0.397,0.175,103,55.7,0.098,CCN1CCCC1CNc1nc2cc(-c3nnn[nH]3)ccc2c2sccc12 (centres unmarked)
1.15,> 10,> 10,63.6,30.8,0.489,NC1CCN(c2nc3cc(-c4nnn[nH]4)ccc3c3sccc23)C1 (centres unmarked)
1.07,> 10,> 10,90,38.6,0.119,c1cc2c(N3CCC(N4CCCC4)CC3)nc3cc(-c4nnn[nH]4)ccc3c2s1
1,> 10,> 10,16.8,27.9,–,c1ccc(CNc2nc3cc(-c4nnn[nH]4)ccc3c3sccc23)nc1
0.73,1.52,1.09,-6.89,-0.704,–,COC(=O)c1ccc2c(c1)nc(NCCN(C)C)c1ccsc12
0.588,0.704,0.719,12.1,-7.27,–,CN(C)CCNc1nc2cc(C#N)ccc2c2sc(Br)cc12
> 10,> 10,> 10,60.7,24.8,0.656,CN(C)CCNc1nc2cc(-c3nnn[nH]3)ccc2c2sc(Br)cc12
> 10,> 10,> 10,81.3,7.3,0.178,CN1CCN(c2nc3cc(-c4nnn[nH]4)ccc3c3sccc23)CC1
> 10,> 10,> 10,59.1,31.1,> 1.1,CCCNc1nc2cc(-c3nnn[nH]3)ccc2c2sccc12
> 10,> 10,> 10,35,27,–,CC(C)(C)OC(=O)N1CCCC1CNc1nc2cc(-c3nnn[nH]3)ccc2c2sccc12 (centres unmarked)
> 10,> 10,> 10,81.1,37.1,0.313,c1cc2c(NCCN3CCCCC3)nc3cc(-c4nnn[nH]4)ccc3c2s1
> 10,> 10,> 10,93.4,86.1,0.046,c1cc2c(NCC3CCCN3)nc3cc(-c4nnn[nH]4)ccc3c2s1 (centres unmarked)
> 10,> 10,> 10,87.3,52.6,0.127,CCN(CC)CCNc1nc2cc(-c3nnn[nH]3)ccc2c2sccc12
> 10,> 10,> 10,-3.76,-12.9,–,COCCNC(=O)c1ccc2c(c1)nc(NCCN(C)C)c1ccsc12
> 10,> 10,> 10,-26.7,-0.336,–,N#Cc1ccc2c(c1)[nH]c(=O)c1cscc12
1.81,> 10,> 10,-20.3,-6.52,–,N#Cc1ccc2c(c1)nc(Cl)c1cscc12
5.47,> 10,> 10,30.6,37.6,–,Fc1ccc(Nc2nc3cc(-c4nnn[nH]4)ccc3c3cscc23)cc1
> 10,> 10,> 10,11.1,52.6,–,Fc1cc(F)cc(Nc2nc3cc(-c4nnn[nH]4)ccc3c3cscc23)c1
> 10,> 10,> 10,84.1,59.8,0.118,CCN1CCC[C@H]1CNc1nc2cc(-c3nnn[nH]3)ccc2c2sccc12
> 10,> 10,> 10,-23.9,-11.5,–,N#Cc1ccc2c(c1)nc(Cl)c1sccc12
